Data taken from US20210127673A1, “HERBICIDES” (SYNGENTA PARTICIPATIONS AG, priority 2016, published 2021).

Legend:
Assay type in all cases: in vivo
Settings in all cases: evaluated after 13 days
[1] = test system: Triticum aestivium (TRZAW); experiment: Pre-emergence herbicidal activity, Triticum aestivium; design: key: 5=total damage to plant; 0=no damage to plant
Summary of the method: (§1)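 Damage is rated on a 0–5 scale (0 = no damage, 5 = total damage) 13 days after treatment. Pots of sown seed are sprayed one day after sowing with an aqueous solution from acetone/water (50:50) with 0.5% Tween 20, then kept under controlled glasshouse conditions.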

Avena fatua (AVEFA) [2] = experiment: Pre-emergence herbicidal activity, Avena fatua; design: key: 5=total damage to plant; 0=no damage to plant
Summary of the method: as §1

[3] = test system: Alopecurus myosuroides (ALOMY); experiment: Pre-emergence herbicidal activity, Alopecurus myosuroides; design: key: 5=total damage to plant; 0=no damage to plant
Summary of the method: as §1

[4] = test system: Echinochloa crus-galli (ECHCG); experiment: Pre-emergence herbicidal activity, Echinochloa crus-galli
Summary of the method: as §1

Lolium perenne (LOLPE) [5] = experiment: Pre-emergence herbicidal activity, Lolium perenne; design: key: 5=total damage to plant; 0=no damage to plant
Summary of the method: as §1

Setaria faberi (SETFA) [6] = experiment: Pre-emergence herbicidal activity, Setaria faberi; design: key: 5=total damage to plant; 0=no damage to plant
Summary of the method: as §1

[7] = test system: Triticum aestivium (TRZAW); experiment: Post-emergence herbicidal activity, Triticum aestivium; design: key: 5=total damage to plant; 0=no damage to plant
Summary of the method: (§2)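 Each value is a visual damage score from 0 (no effect) to 5 (plant killed), assessed 13 days after a foliar spray applied to 8-day-old plants. The compound was applied in acetone/water 50:50 with 0.5% Tween 20 under controlled glasshouse conditions.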

Avena fatua (AVEFA) [8] = experiment: Post-emergence herbicidal activity, Avena fatua
Summary of the method: as §2

[9] = test system: Alopecurus myosuroides (ALOMY); experiment: Post-emergence herbicidal activity, Alopecurus myosuroides; design: key: 5=total damage to plant; 0=no damage to plant
Summary of the method: as §2

[10] = test system: Echinochloa crus-galli (ECHCG); experiment: Post-emergence herbicidal activity, Echinochloa crus-galli; design: key: 5=total damage to plant; 0=no damage to plant
Summary of the method: as §2

Lolium perenne (LOLPE) [11] = experiment: Post-emergence herbicidal activity, Lolium perenne
Summary of the method: as §2

Setaria faberi (SETFA) [12] = experiment: Post-emergence herbicidal activity, Setaria faberi; design: key: 5=total damage to plant; 0=no damage to plant
Summary of the method: as §2

| Structure (SMILES) | Control of TRAZW after pre-emergence application (score 0-5) ([1]; 1000 g/ha) | Control of AVEFA after pre-emergence application (score 0-5) (Avena fatua (AVEFA) [2]; 1000 g/ha) | Control of ALOMY after pre-emergence application (score 0-5) ([3]; 1000 g/ha) | Control of ECHCG after pre-emergence application (score 0-5) ([4]; 1000 g/ha) | Control of LOLPE after pre-emergence application (score 0-5) (Lolium perenne (LOLPE) [5]; 1000 g/ha) | Control of SETFA after pre-emergence application (score 0-5) (Setaria faberi (SETFA) [6]; 1000 g/ha) | Control of TRAZW after post-emergence application (score 0-5) ([7]; 1000 g/ha) | Control of AVEFA after post-emergence application (score 0-5) (Avena fatua (AVEFA) [8]; 1000 g/ha) | Control of ALOMY after post-emergence application (score 0-5) ([9]; 1000 g/ha) | Control of ECHCG after post-emergence application (score 0-5) ([10]; 1000 g/ha) | Control of LOLPE after post-emergence application (score 0-5) (Lolium perenne (LOLPE) [11]; 1000 g/ha) | Control of SETFA after post-emergence application (score 0-5) (Setaria faberi (SETFA) [12]; 1000 g/ha) | Control of TRAZW after pre-emergence application (score 0-5) ([1]; 250 g/ha) | Control of AVEFA after pre-emergence application (score 0-5) (Avena fatua (AVEFA) [2]; 250 g/ha) | Control of ALOMY after pre-emergence application (score 0-5) ([3]; 250 g/ha) | Control of ECHCG after pre-emergence application (score 0-5) ([4]; 250 g/ha) | Control of LOLPE after pre-emergence application (score 0-5) (Lolium perenne (LOLPE) [5]; 250 g/ha) | Control of SETFA after pre-emergence application (score 0-5) (Setaria faberi (SETFA) [6]; 250 g/ha) | Control of TRAZW after post-emergence application (score 0-5) ([7]; 250 g/ha) | Control of AVEFA after post-emergence application (score 0-5) (Avena fatua (AVEFA) [8]; 250 g/ha) | also measured |
| --- | --- | --- | --- | --- | --- | --- | --- | --- | --- | --- | --- | --- | --- | --- | --- | --- | --- | --- | --- | --- | --- |
| O=C(Nc1ccc(-c2cncc(F)c2)nc1C(F)(F)F)OC1CCCCC1 [Compound B108] | 0 | 2 | 0 | 3 | 2 | 5 | 0 | 3 | 0 | 0 | 1 | 5 |  |  |  |  |  |  |  |  |  |
| O=C(Nc1cncnc1)Nc1ccc(-c2cncc(F)c2)nc1C(F)(F)F [Compound B70] | 0 | 0 | 0 | 1 | 0 | 2 | 1 | 1 | 0 | 3 | 1 | 3 |  |  |  |  |  |  |  |  |  |
| O=C(NCC1CCCCC1)Nc1ccc(-c2cncc(F)c2)nc1C(F)(F)F [Compound B80] |  |  |  |  |  |  |  |  |  |  |  |  | 0 | 1 | 0 | 1 | 2 | 2 | 0 | 2 | Control of ALOMY after post-emergence application (score 0-5) ([9]; 250 g/ha): 0; Control of ECHCG after post-emergence application (score 0-5) ([10]; 250 g/ha): 1; Control of LOLPE after post-emergence application (score 0-5) (Lolium perenne (LOLPE) [11]; 250 g/ha): 1; Control of SETFA after post-emergence application (score 0-5) (Setaria faberi (SETFA) [12]; 250 g/ha): 2 |
| C#CCOC(=O)Nc1ccc(-c2cncc(F)c2)nc1C(F)(F)F [Compound B61] | 0 | 2 | 1 | 3 | 1 | 2 | 0 | 2 | 1 | 4 | 2 | 4 |  |  |  |  |  |  |  |  |  |
| CCCCN(C)C(=O)Nc1ccc(-c2cncc(F)c2)nc1C(F)(F)F [Compound B95] |  |  |  |  |  |  |  |  |  |  |  |  | 0 | 0 | 0 | 1 | 1 | 4 | 0 | 3 | Control of ALOMY after post-emergence application (score 0-5) ([9]; 250 g/ha): 0; Control of ECHCG after post-emergence application (score 0-5) ([10]; 250 g/ha): 2; Control of LOLPE after post-emergence application (score 0-5) (Lolium perenne (LOLPE) [11]; 250 g/ha): 1; Control of SETFA after post-emergence application (score 0-5) (Setaria faberi (SETFA) [12]; 250 g/ha): 5 |
| O=C(Nc1ccc(-c2cncc(F)c2)nc1C(F)(F)F)N1CCS(=O)(=O)C1 [Compound B116, N-[6-(5-fluoro-3-pyridyl)-2-(trifluoromethyl)-3-pyridyl]-1,1-dioxo-1,3-thiazolidine-3-carboxamide] | 0 | 2 | 0 | 4 | 1 | 5 | 1 | 3 | 1 | 4 | 3 | 5 |  |  |  |  |  |  |  |  |  |
